Test results as given in US20230374034A1, “NOVEL BICYCLIC COMPOUNDS” (PRISM BIOLAB CO., LTD., priority 2020, published 2023).

Tested on: NICD (Notch intracellular domain) CSL-bla reporter in HeLa cells
Test: Notch assay (CellSensor T-REx NICD CSL-bla HeLa beta-lactamase reporter; Method 1 / Method 2)
Type: cell-based
Details: Homo sapiens, 10 μM compound, Method 1 (10× compound prepared in assay medium, added to plated cells), read-out: inhibiton (%) at 10 μM
Excerpt: We used the CellSensor T-REx™ NICD CSL-bla HeLa cell line, which was engineered by lentiviral transduction of HeLa cells with a Notch response element driving beta-lactamase reporter gene expression (CSL-bla) along with DOX (doxycycline)-inducible NICD (Notch intracellular domain) constructs. Addition of DOX to these cells allows for regulated NICD transcription factor expression and subsequent beta-lactamase expression.
Specifically, the following protocol was used.
NOTCH ASSAY PROTOCOL (Method 2)
• 1. Add 40 nL/well of working concentration of 1000× compound to 384-well assay plate with Echo. • 2. Plate Cells: 35 μl/well of HeLa/T-REx™ NICD CSL-bla cells at 10^3 cells/well complete medium into 384-well plate. • 3. Add 5 μl 8× Doxycycline in Assay Medium to the treated wells, and 5 μl Assay Medium to the Untreated and cell free control wells. • 4. Incubate the assay plate in a humidified 37° C./5% CO2 incubator for 16-20 hours. • 5. Preparation of 6× LiveBLAzer™-FRET B/G Substrate (CCF4-AM) Mixture according to the manual and cell loading should be done in the absence of direct strong lighting. • 6. Remove assay plate from the humidified 37° C./5% CO2 incubator. Add 8 μl of 6× Substrate Mixture from Step 5 to each well. Cover the plate to protect it from light and evaporation. Incubate at room temperature for 4 hours. • 7. Reading an Assay Plate using the following filter selections:
• 8. Data analysis: Use the assay plate layout to identify the location of the Cell-free wells. These control wells are used for background subtraction. Determine the average emission from the Cell-free wells at both 460 nm (Average Blue Background) and 530 nm(Average Green Background). Subtract the Average Blue Background (data collected at 460 nm) from all of the blue emission data. Subtract the Average Green background (data collected at 530 nm) from all of the green emission data. Calculate the Blue/Green Emission Ratio for each well, by dividing the background-subtracted blue emission values by the background-subtracted green emission values.
Instead of Step 1 to Step 3, the following Step a to Step d can also be performed. The subsequent steps are the same as Method 2, after Step 4 (Method 1). • a. Plate Cells: 32 μL/well of HeLa/T-REx™ NICD CSL-bla cells at 10^3 cells/well complete medium into 384-well plate. • b. Prepare 10× compounds in assay medium. • c. Add 4 μL compounds or 1% DMSO in assay medium to the cells. • d. Add 4 μL 10×Doxycycline in Assay Medium to the treated wells, and 4 μL Assay Medium to the Untreated and cell free control wells.
The results are shown in Table 13 (Table 13-1 to Table 13-2).

Question: `CC(C)[C@H]1C(=O)N(CC2CCCCC2)CC2N(C(=O)OCc3cccc4ccccc34)O[C@H](CC(N)=O)C(=O)N21` (stereo partly drawn) [Compound I-18, (3R,6S)-naphthalen-1-ylmethyl 3-(2-amino-2-oxoethyl)-8-(cyclohexylmethyl)-6-isopropyl-4,7-dioxohexahydropyrazino[2,1-c][1,2,4]oxadiazine-1(6H)-carboxylate] was tested. Which inhibition at 10 µM did it give?
Answer: Its inhibition at 10 µM is 54%.

Question: For `CC(C)C[C@H]1ON(C(=O)OCc2cccc3ccccc23)C2CN(CCC(N)=O)C(=O)[C@H](CC3CCCCC3)N2C1=O` (stereo partly drawn) [Compound I-13, (3R,6S)-naphthalen-1-ylmethyl 8-(3-amino-3-oxopropyl)-6-(cyclohexylmethyl)-3-isobutyl-4,7-dioxohexahydropyrazino[2,1-c][1,2,4]oxadiazine-1(6H)-carboxylate], which inhibition at 10 µM is on record?
Answer: Its inhibition at 10 µM is 55.5%.

Question: With `CC(C)CCN1CC2N(C(=O)OCc3cccc4ccccc34)O[C@H](CC(N)=O)C(=O)N2[C@@H](Cc2ccccc2)C1=O` (stereo partly drawn) [Compound I-21, (3R,6S)-naphthalen-1-ylmethyl 3-(2-amino-2-oxoethyl)-6-benzyl-8-isopentyl-4,7-dioxohexahydropyrazino[2,1-c][1,2,4]oxadiazine-1(6H)-carboxylate] as the compound, how does the inhibition at 10 µM read?
Answer: The inhibition at 10 µM was 60%.

Same assay, conditions: Homo sapiens, 10 μM compound, Method 2 (40 nL of 1000× compound added to plate with Echo), read-out: inhibiton (%) at 10 μM

Question: `CC(C)CCOC(=O)N1O[C@H](Cc2ccccc2)C(=O)N2C1CN([C@@H](Cc1ccccc1)C(=O)NCCCO)C(=O)[C@@H]2Cc1ccc(O)cc1` (stereo partly drawn) [Compound I-106, isopentyl (3R,6S)-3-benzyl-6-(4-hydroxybenzyl)-8-((S)-1-((3-hydroxypropyl)amino)-1-oxo-3-phenylpropan-2-yl)-4,7-dioxohexahydropyrazino[2,1-c][1,2,4]oxadiazine-1(6H)-carboxylate] was tested. Which inhibition at 10 µM did it give?
Answer: Its inhibition at 10 µM is 52%.

Question: Which inhibition at 10 µM does the source give for `C[C@H]1ON(C(=O)OCCc2ccc(O)cc2)C2CN([C@@H](Cc3ccccc3)C(=O)NCCC(N)=O)C(=O)[C@H](Cc3ccccc3)N2C1=O` (stereo partly drawn) [Compound I-86, 4-hydroxyphenethyl (3R,6S)-8-((S)-1-((3-amino-3-oxopropyl)amino)-1-oxo-3-phenylpropan-2-yl)-6-benzyl-3-methyl-4,7-dioxohexahydro-pyrazino[2,1-c] [1,2,4]oxadiazine-1(6H)-carboxylate] here?
Answer: The inhibition at 10 µM was 70.9%.

Question: With `CC(C)C[C@H]1ON(C(=O)OCc2cccc3ccccc23)C2CN(C3CCN(C)CC3)C(=O)[C@H](CC(C)C)N2C1=O` (stereo partly drawn) [Compound I-137, naphthalen-1-ylmethyl (3R,6S)-3,6-diisobutyl-8-(1-methylpiperidin-4-yl)-4,7-dioxohexahydropyrazino[2,1-c][1,2,4]oxadiazine-1(6H)-carboxylate] as the compound, how does the inhibition at 10 µM read?
Answer: Its inhibition at 10 µM is 81.8%.

Question: `CC[C@H](C)OC(=O)N1O[C@H](CC2CCCCC2)C(=O)N2C1CN(CCc1ccccc1)C(=O)[C@@H]2CCCCN` (stereo partly drawn) [Compound I-38, (3R,6S)-(S)-sec-butyl 6-(4-aminobutyl)-3-(cyclohexylmethyl)-4,7-dioxo-8-phenethylhexahydropyrazino [2,1-c][1,2,4]oxadiazine-1(6H)-carboxylate] was tested. Which inhibition at 10 µM did it give?
Answer: The inhibition at 10 µM was 97.3%.

Question: With `CC(C)C[C@H]1C(=O)N(C2CCN(C)CC2)CC2N(C(=O)OCc3ccccc3)O[C@H](CC3CCCCC3)C(=O)N21` (stereo partly drawn) [Compound I-138, benzyl (3R,6S)-3-(cyclohexylmethyl)-6-isobutyl-8-(1-methylpiperidin-4-yl)-4,7-dioxohexahydropyrazino[2,1-c][1,2,4]oxadiazine-1(6H)-carboxylate] as the compound, how does the inhibition at 10 µM read?
Answer: Its inhibition at 10 µM is 98.2%.

Question: For `CC(C)CCNC(=O)[C@H](Cc1ccc(O)cc1)N1CC2N(C(=O)OCCc3ccc(O)cc3)O[C@H](CC(C)C)C(=O)N2[C@@H](Cc2ccc(O)cc2)C1=O` (stereo partly drawn) [Compound I-95, 4-hydroxyphenethyl (3R,6S)-6-(4-hydroxybenzyl)-8-((S)-3-(4-hydroxyphenyl)-1-(isopentylamino)-1-oxopropan-2-yl)-3-isobutyl-4,7-dioxohexahydropyrazino[2,1-c][1,2,4]oxadiazine-1(6H)-carboxylate], which inhibition at 10 µM is on record?
Answer: Its inhibition at 10 µM is 60.1%.

Question: `CCCCCOC(=O)N1O[C@H](Cc2ccccc2)C(=O)N2C1CN([C@@H](Cc1ccc(O)cc1)C(=O)NCCc1ccccc1)C(=O)[C@@H]2Cc1ccc(O)cc1` (stereo partly drawn) [Compound I-113, pentyl (3R,6S)-3-benzyl-6-(4-hydroxybenzyl)-8-((S)-3-(4-hydroxyphenyl)-1-oxo-1-(phenethylamino)propan-2-yl)-4,7-dioxohexahydropyrazino[2,1-c][1,2,4]oxadiazine-1(6H)-carboxylate] was tested. Which inhibition at 10 µM did it give?
Answer: The inhibition at 10 µM was 62.9%.

Question: How did the inhibition at 10 µM turn out when `CC(C)C[C@@H](C(=O)NCCc1ccccc1)N1CC2N(C(=O)OCCc3ccc(O)cc3)O[C@H](Cc3ccccc3)C(=O)N2[C@@H](C)C1=O` (stereo partly drawn) [Compound I-121, 4-hydroxyphenethyl (3R,6S)-3-benzyl-6-methyl-8-((S)-4-methyl-1-oxo-1-(phenethylamino)pentan-2-yl)-4,7-dioxohexahydropyrazino [2,1-c][1,2,4]oxadiazine-1(6H)-carboxylate] was run?
Answer: Its inhibition at 10 µM is 63.3%.

Question: Which inhibition at 10 µM does the source give for `CC(C)CCCNC(=O)[C@H](Cc1ccc(O)cc1)N1CC2N(C(=O)OCCc3ccccc3)O[C@H](CC(C)C)C(=O)N2[C@@H](Cc2ccc(O)cc2)C1=O` (stereo partly drawn) [Compound I-99, phenethyl (3R,6S)-6-(4-hydroxybenzyl)-8-((S)-3-(4-hydroxyphenyl)-1-((4-methylpentyl)amino)-1-oxopropan-2-yl)-3-isobutyl-4,7-dioxohexahydropyrazino [2,1-c][1,2,4]oxadiazine-1(6H)-carboxylate] here?
Answer: Its inhibition at 10 µM is 58%.

Question: `O=C1[C@H](CO)N2C(=O)[C@@H](Cc3ccccc3)ON(C(=O)OCC3CCCCC3)C2CN1CCc1ccc(O)cc1` (stereo partly drawn) [Compound I-32, (3R,6S)-cyclohexylmethyl 3-benzyl-6-(hydroxymethyl)-8-(4-hydroxyphenethyl)-4,7-dioxohexahydropyrazino[2,1-c][1,2,4]oxadiazine-1(6H)-carboxylate] was tested. Which inhibition at 10 µM did it give?
Answer: Its inhibition at 10 µM is 59.8%.

Question: Which inhibition at 10 µM does the source give for `CC(C)C[C@H]1ON(C(=O)OCc2cccc3ccccc23)C2CN(C3CCNCC3)C(=O)[C@H](CC(C)C)N2C1=O` (stereo partly drawn) [Compound I-136, naphthalen-1-ylmethyl (3R,6S)-3,6-diisobutyl-4,7-dioxo-8-(piperidin-4-yl)hexahydropyrazino[2,1-c][1,2,4]oxadiazine-1(6H)-carboxylate] here?
Answer: The inhibition at 10 µM was 79.7%.

Question: Which inhibition at 10 µM does the source give for `NC(=O)CC[C@H]1ON(C(=O)NCCC(c2ccccc2)c2ccccc2)C2CN(Cc3cccc4ccccc34)C(=O)[C@H](Cc3ccccc3)N2C1=O` (stereo partly drawn) [Compound I-54, (3R,6S)-3-(3-amino-3-oxopropyl)-6-benzyl-N-(3,3-diphenylpropyl)-8-(naphthalen-1-ylmethyl)-4,7-dioxohexahydropyrazino[2,1-c][1,2,4]oxadiazine-1(6H)-carboxamide] here?
Answer: Its inhibition at 10 µM is 60.4%.

Question: With `CC(C)OC(=O)N1O[C@H](CC2CCCCC2)C(=O)N2C1CN(CCc1ccccc1)C(=O)[C@@H]2CCCCN` (stereo partly drawn) [Compound I-37, (3R,6S)-isopropyl 6-(4-aminobutyl)-3-(cyclohexylmethyl)-4,7-dioxo-8-phenethylhexahydropyrazino [2,1-c][1,2,4]oxadiazine-1(6H)-carboxylate] as the compound, how does the inhibition at 10 µM read?
Answer: Its inhibition at 10 µM is 87.3%.

Question: How did the inhibition at 10 µM turn out when `CC(C)C[C@H]1ON(C(=O)OCCc2ccccc2)C2CN([C@@H](Cc3ccc(O)cc3)C(=O)NCCc3ccccc3)C(=O)[C@H](Cc3ccc(O)cc3)N2C1=O` (stereo partly drawn) [Compound I-102, phenethyl (3R,6S)-6-(4-hydroxybenzyl)-8-((S)-3-(4-hydroxyphenyl)-1-oxo-1-(phenethylamino)propan-2-yl)-3-isobutyl-4,7-dioxohexahydropyrazino[2,1-c][1,2,4]oxadiazine-1(6H)-carboxylate] was run?
Answer: Its inhibition at 10 µM is 67.3%.

Question: How did the inhibition at 10 µM turn out when `CN1CCC(N2CC3N(C(=O)OCc4ccccc4)O[C@H](CC4CCCCC4)C(=O)N3[C@@H](CC3CCCCC3)C2=O)CC1` (stereo partly drawn) [Compound I-139, benzyl (3R,6S)-3,6-bis (cyclohexylmethyl)-8-(1-methylpiperidin-4-yl)-4,7-dioxohexahydropyrazino [2,1-c][1,2,4]oxadiazine-1(6H)-carboxylate] was run?
Answer: The inhibition at 10 µM was 116%.

Question: With `CC(C)CCNC(=O)[C@H](Cc1ccccc1)N1CC2N(C(=O)OCCc3ccccc3)O[C@H](CCC(N)=O)C(=O)N2[C@@H](Cc2ccccc2)C1=O` (stereo partly drawn) [Compound I-90, phenethyl (3R,6S)-3-(3-amino-3-oxopropyl)-6-benzyl-8-((S)-1-(isopentylamino)-1-oxo-3-phenylpropan-2-yl)-4,7-dioxohexahydropyrazino[2,1-c][1,2,4]oxadiazine-1(6H)-carboxylate] as the compound, how does the inhibition at 10 µM read?
Answer: The inhibition at 10 µM was 62.4%.
